Data reported in patent US11242337B2, “Compounds useful for treating gastrointestinal tract disorders” (Ardelyx, Inc., priority 2017, dated 2022).

Target: T1, NHE3 (Homo sapiens, UniProt P48764)
T1 construct: expressed in transfected cells
T1 sequence (P48764 26-834): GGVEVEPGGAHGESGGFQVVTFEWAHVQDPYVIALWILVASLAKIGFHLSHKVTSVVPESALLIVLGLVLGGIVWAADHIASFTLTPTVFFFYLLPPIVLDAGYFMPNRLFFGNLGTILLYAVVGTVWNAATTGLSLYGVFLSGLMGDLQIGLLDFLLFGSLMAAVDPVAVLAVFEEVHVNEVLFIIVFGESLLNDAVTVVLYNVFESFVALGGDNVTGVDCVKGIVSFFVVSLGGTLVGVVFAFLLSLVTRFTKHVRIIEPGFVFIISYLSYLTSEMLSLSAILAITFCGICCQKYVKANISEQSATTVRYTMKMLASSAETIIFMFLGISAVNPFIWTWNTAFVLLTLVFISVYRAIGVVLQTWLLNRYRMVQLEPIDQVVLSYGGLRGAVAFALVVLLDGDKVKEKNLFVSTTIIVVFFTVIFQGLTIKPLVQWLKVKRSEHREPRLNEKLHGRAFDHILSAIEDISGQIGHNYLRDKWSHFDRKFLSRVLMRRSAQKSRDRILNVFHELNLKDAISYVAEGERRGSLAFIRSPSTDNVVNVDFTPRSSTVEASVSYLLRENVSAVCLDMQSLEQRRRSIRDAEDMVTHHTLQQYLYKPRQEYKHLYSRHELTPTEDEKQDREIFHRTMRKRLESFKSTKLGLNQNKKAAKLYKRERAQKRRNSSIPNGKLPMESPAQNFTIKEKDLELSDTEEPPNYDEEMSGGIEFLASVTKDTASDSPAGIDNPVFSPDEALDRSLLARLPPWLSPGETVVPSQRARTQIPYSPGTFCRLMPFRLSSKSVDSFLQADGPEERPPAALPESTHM
T1 sequence (Q99653 2-195 partner limits assumed): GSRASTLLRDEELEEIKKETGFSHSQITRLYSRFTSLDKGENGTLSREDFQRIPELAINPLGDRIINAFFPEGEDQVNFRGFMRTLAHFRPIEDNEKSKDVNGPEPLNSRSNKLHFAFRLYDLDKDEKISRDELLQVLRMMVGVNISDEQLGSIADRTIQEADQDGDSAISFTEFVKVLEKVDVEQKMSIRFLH
Test: persistent inhibition of NHE3 in the cell-based assay of example 181 (4-chloro vs 4-cyano pairs)
Conditions: for IC50: cell-based assay of example 181, after washout, read-out: pIC50 (persistent) (converted); for Percent Inhibition: cell-based assay of example 181, persistent
Description: The following pairs of compounds differ only in the 4-position substituent (either chloro (X—Cl) or cyano (X—CN)):
The ability of compounds to inhibit human and rat NHE-3-mediated Na^+ dependent H^+ antiport after application and washout was measured using a modification of the pH sensitive dye method described above. PS120 fibroblasts stably expressing human NHE3 and NHERF2 were obtained from Mark Donowitz (Baltimore, Md.). Opossum kidney (OK) cells were obtained from the ATCC and propagated per their instructions. The rat NHE-3 gene was introduced into OK cells via electroporation, and cells were seeded into 96 well plates and grown overnight. Medium was aspirated from the wells, cells were washed once with NaCl-HEPES buffer (100 mM NaCl, 50 mM HEPES, 10 mM glucose, 5 mM KCl, 2 mM CaCl2, 1 mM MgCl2, pH 7.4), then overlayed with NaCl-HEPES buffer containing 0-30 μM test compound. After a 60 min incubation at room temperature, the test drug containing buffer was aspirated from the cells. Following aspiration, cells were washed once with NaCl-HEPES buffer without drug, then incubated for 30 min at 37° C. with NH4Cl-HEPES buffer (20 mM NH4Cl, 80 mM NaCl, 50 mM HEPES, 5 mM KCl, 2 mM CaCl2, 1 mM MgCl2, pH 7.4) containing 5 μM BCECF-AM. Cells were washed once with Ammonium free, Na^+-free HEPES (100 mM choline, 50 mM HEPES, 10 mM glucose, 5 mM KCl, 2 mM CaCl2, 1 mM MgCl2, pH 7.4) and incubated in the same buffer for 10 minutes at room temperature to lower intracellular pH. NHE-3-mediated recovery of neutral intracellular pH was initiated (10 min after compound washout) by addition of Na-HEPES buffer. […] Changes in intracellular pH were monitored using a FLIPR Tetra® (Molecular Devices, Sunnyvale, Calif.) by excitation at λex 439 to 505 nm, and measuring BCECF fluorescence at λem 538 nm. The initial rate of the fluorescence ratio change was used as a measure of NHE-mediated Na^+/H^+ activity, and reported as the change in fluorescence ratio per minute.

Row | Compound | IC50 | Percent Inhibition
1 | C[C@@H]1CN([C@H]2Cc3c(C#N)cc(Cl)cc3[C@@H]2Oc2ccc(S(=O)(=O)N[C@@H]3CCN(CCOCCNC(=O)NCCCCNC(=O)NCCOCCN4CC[C@@H](NS(=O)(=O)c5ccc(O[C@H]6c7cc(Cl)cc(C#N)c7C[C@@H]6N6CCN[C@H](C)C6)cc5)C4)C3)cc2)CCN1 [A-CN, 3-(2-{2-[(3R)-3-(4-{[(1S,2S)-6-chloro-4-cyano-2-[(3R)-3-methylpiperazin-1-yl]-2,3-dihydro-1H-inden-1-yl]oxy}benzenesulfonamido)pyrrolidin-1-yl]ethoxy}ethyl)-1-(4-{[(2-{2-[(3R)-3-(4-{[(1S,2S)-6-chloro-4-cyano-2-[(3R)-3-methylpiperazin-1-yl]-2,3-dihydro-1H-inden-1-yl]oxy}benzenesulfonamido)pyrrolidin-1-yl]ethoxy}ethyl)carbamoyl]amino}butyl)urea] | 631 pM | 101%
2 | C[C@@H]1CN([C@H]2Cc3c(Cl)cc(Cl)cc3[C@@H]2Oc2ccc(S(=O)(=O)N[C@H]3CCN(CCOCCNC(=O)NCCCCNC(=O)NCCOCCN4CC[C@H](NS(=O)(=O)c5ccc(O[C@H]6c7cc(Cl)cc(Cl)c7C[C@@H]6N6CCN[C@H](C)C6)cc5)C4)C3)cc2)CCN1 [A-Cl, 3-(2-{2-[(3S)-3-(4-{[(1S,2S)-4,6-dichloro-2-[(3R)-3-methylpiperazin-1-yl]-2,3-dihydro-1H-inden-1-yl]oxy}benzenesulfonamido)pyrrolidin-1-yl]ethoxy}ethyl)-1-(4-{[(2-{2-[(3S)-3-(4-{[(1S,2S)-4,6-dichloro-2-[(3R)-3-methylpiperazin-1-yl]-2,3-dihydro-1H-inden-1-yl]oxy}benzenesulfonamido)pyrrolidin-1-yl]ethoxy}ethyl)carbamoyl]amino}butyl)urea] | 2510 pM | 101%
3 | C[C@@H]1CN([C@H]2Cc3c(C#N)cc(Cl)cc3[C@@H]2Oc2ccc(S(=O)(=O)N[C@H]3CCN(C(=O)CNC(=O)CNC(=O)NCCCCNC(=O)NCC(=O)NCC(=O)N4CC[C@H](NS(=O)(=O)c5ccc(O[C@H]6c7cc(Cl)cc(C#N)c7C[C@@H]6N6CCN[C@H](C)C6)cc5)C4)C3)cc2)CCN1 [B-CN, N-{2-[(3S)-3-(4-{[(1S,2S)-6-chloro-4-cyano-2-[(3R)-3-methylpiperazin-1-yl]-2,3-dihydro-1H-inden-1-yl]oxy}benzenesulfonamido)pyrrolidin-1-yl]-2-oxoethyl}-2-({[4-({[({2-[(3S)-3-(4-{[(1S,2S)-6-chloro-4-cyano-2-[(3R)-3-methylpiperazin-1-yl]-2,3-dihydro-1H-inden-1-yl]oxy}benzenesulfonamido)pyrrolidin-1-yl]-2-oxoethyl}carbamoyl)methyl]carbamoyl}amino)butyl]carbamoyl}amino)acetamide] | 126 pM | 110%
4 | C[C@@H]1CN([C@H]2Cc3c(Cl)cc(Cl)cc3[C@@H]2Oc2ccc(S(=O)(=O)N[C@H]3CCN(C(=O)CNC(=O)CNC(=O)NCCCCNC(=O)NCC(=O)NCC(=O)N4CC[C@H](NS(=O)(=O)c5ccc(O[C@H]6c7cc(Cl)cc(Cl)c7C[C@@H]6N6CCN[C@H](C)C6)cc5)C4)C3)cc2)CCN1 [B-Cl, N-{2-[(3S)-3-(4-{[(1S,2S)-4,6-dichloro-2-[(3R)-3-methylpiperazin-1-yl]-2,3-dihydro-1H-inden-1-yl]oxy}benzenesulfonamido)pyrrolidin-1-yl]-2-oxoethyl}-2-({[4-({[({2-[(3S)-3-(4-{[(1S,2S)-4,6-dichloro-2-[(3R)-3-methylpiperazin-1-yl]-2,3-dihydro-1H-inden-1H-yl]oxy}benzenesulfonamido)pyrrolidin-1-yl]-2-oxoethyl}carbamoyl)methyl]carbamoyl}amino)butyl]carbamoyl}amino)acetamide] | 631 pM | 102%
5 | N#Cc1cc(Cl)cc2c1C[C@H](N1CCNCC1)[C@H]2Oc1ccc(S(=O)(=O)N[C@H]2CCN(CCOCCNC(=O)NCCCCNC(=O)NCCOCCN3CC[C@H](NS(=O)(=O)c4ccc(O[C@H]5c6cc(Cl)cc(C#N)c6C[C@@H]5N5CCNCC5)c(F)c4)C3)C2)cc1F [C-CN, 3-(2-{2-[(3 S)-3-(4-{[(1S,2S)-6-chloro-4-cyano-2-(piperazin-1-yl)-2,3-dihydro-1H-inden-1-yl]oxy}-3-fluorobenzenesulfonamido)pyrrolidin-1-yl]ethoxy}ethyl)-1-(4-{[(2-{2-[(3S)-3-(4-{[(1S,2S)-6-chloro-4-cyano-2-(piperazin-1-yl)-2,3-dihydro-1H-inden-1-yl]oxy}-3-fluorobenzenesulfonamido)pyrrolidin-1-yl]ethoxy}ethyl)carbamoyl]amino}butyl)urea] | 501 pM | 106%
6 | O=C(NCCCCNC(=O)NCCOCCN1CC[C@H](NS(=O)(=O)c2ccc(O[C@H]3c4cc(Cl)cc(Cl)c4C[C@@H]3N3CCNCC3)c(F)c2)C1)NCCOCCN1CC[C@H](NS(=O)(=O)c2ccc(O[C@H]3c4cc(Cl)cc(Cl)c4C[C@@H]3N3CCNCC3)c(F)c2)C1 [C-Cl, 3-(2-{2-[(3S)-3-(4-{[(1S,2S)-4,6-dichloro-2-(piperazin-1-yl)-2,3-dihydro-1H-inden-1-yl]oxy}-3-fluorobenzenesulfonamido)pyrrolidin-1-yl]ethoxy}ethyl)-1-(4-{[(2-{2-[(3S)-3-(4-{[(1S,2S)-4,6-dichloro-2-(piperazin-1-yl)-2,3-dihydro-1H-inden-1-yl]oxy}-3-fluorobenzenesulfonamido)pyrrolidin-1-yl]ethoxy}ethyl)carbamoyl]amino}butyl)urea] | 3980 pM | 90%
7 | N#Cc1cc(Cl)cc2c1C[C@H](N1CCNCC1)[C@H]2Oc1ccc(S(=O)(=O)NCCOCCOCCNC(=O)NCCCCNC(=O)NCCOCCOCCNS(=O)(=O)c2ccc(O[C@H]3c4cc(Cl)cc(C#N)c4C[C@@H]3N3CCNCC3)c(F)c2)cc1F [D-CN, 3-(2-{2-[2-(4-{[(1S,2S)-6-chloro-4-cyano-2-(piperazin-1-yl)-2,3-dihydro-1H-inden-1-yl]oxy}-3-fluorobenzenesulfonamido)ethoxy]ethoxy}ethyl)-1-(4-{[(2-{2-[2-(4-{[(1S,2S)-6-chloro-4-cyano-2-(piperazin-1-yl)-2,3-dihydro-1H-inden-1-yl]oxy}-3-fluorobenzenesulfonamido)ethoxy]ethoxy}ethyl)carbamoyl]amino}butyl)urea] | 501 pM | 74%
8 | O=C(NCCCCNC(=O)NCCOCCOCCNS(=O)(=O)c1ccc(O[C@H]2c3cc(Cl)cc(Cl)c3C[C@@H]2N2CCNCC2)c(F)c1)NCCOCCOCCNS(=O)(=O)c1ccc(O[C@H]2c3cc(Cl)cc(Cl)c3C[C@@H]2N2CCNCC2)c(F)c1 [D-Cl, 3-(2-{2-[2-(4-{[(1S,2S)-4,6-dichloro-2-(piperazin-1-yl)-2,3-dihydro-1H-inden-1-yl]oxy}-3-fluorobenzenesulfonamido)ethoxy]ethoxy}ethyl)-1-(4-{[(2-{2-[2-(4-{[(1S,2S)-4,6-dichloro-2-(piperazin-1-yl)-2,3-dihydro-1H-1-inden-1-yl]oxy}-3-fluorobenzenesulfonamido)ethoxy]ethoxy}ethyl)carbamoyl]amino}butyl)urea] | 3980 pM | –
